Data reported in ChEMBL document CHEMBL4842337, “Synthesis, computational docking and biological evaluation of celastrol derivatives as dual inhibitors of SERCA and P-glycoprotein in cancer therapy” (Eur J Med Chem, 2021).
Activity calls are given as the source filed them. No cut-off for these calls is given here.

Legend:
A549 = experiment: Antiproliferative activity against human A549 cells assessed as inhibition of cell proliferation measured after 72 hrs by MTT assay; assay type: functional, cell-based; conditions: A549, 72 h
L02 [1] = experiment: Cytotoxicity against human L02 cells assessed as cell viability measured after 72 hrs by MTT assay; assay type: cell-based; conditions: L02, 72 h
[2] = Antiproliferative activity against human HePAD38 cells assessed as inhibition of cell proliferation measured after 72 hrs by MTT assay; assay type: functional, cell-based; conditions: HePAD38, 72 h
BEAS-2B = experiment: Antiproliferative activity against human BEAS-2B cells assessed as inhibition of cell proliferation measured after 72 hrs by MTT assay; assay type: functional, cell-based
HepG2 [3] = experiment: Antiproliferative activity against human HepG2 cells assessed as inhibition of cell proliferation measured after 72 hrs by MTT assay; assay type: functional, cell-based; conditions: HepG2, 72 h
[4] = Selectivity index, ratio of IC50 for human L02 cells to IC50 for human HepG2 cells; assay type: toxicity; conditions: L02 cells versus HepG2 cells, read-out: Ratio IC50
HepG2 [5] = experiment: Induction of apoptosis in human HepG2 cells assessed as early apoptotic cells at 1 uM measured after 24 hrs by Annexin-V/PI staining based flow cytometry assay (reference value: 0.181%); assay type: functional
[6] = Induction of apoptosis in human HePAD38 cells assessed as necrotic cells at 1 uM measured after 24 hrs by Annexin-V/PI staining based flow cytometry assay (reference value: 0.903%); assay type: functional
HeLa [7] = experiment: Inhibition of human SERCA in human HeLa cells assessed as alteration of calcium dynamics at 1 uM preincubated with compound C measured after 2 hrs by FLIPR calcium assay; assay type: cell-based
HepG2 [8] = experiment: Induction of apoptosis in human HepG2 cells assessed as viable cells at 1 uM measured after 24 hrs by Annexin-V/PI staining based flow cytometry assay (reference value: 99.1%); assay type: functional; conditions: read-out: Activity
[9] = Induction of apoptosis in human HePAD38 cells assessed as early apoptotic cells at 1 uM measured after 24 hrs by Annexin-V/PI staining based flow cytometry assay (reference value: 0.158%); assay type: functional
[10] = Induction of apoptosis in human L02 cells assessed as viable cells at 1 uM measured after 24 hrs by Annexin-V/PI staining based flow cytometry assay (reference value: 97.5%); assay type: cell-based; conditions: read-out: Activity
L02 [11] = experiment: Induction of apoptosis in human L02 cells assessed as necrotic cells at 1 uM measured after 24 hrs by Annexin-V/PI staining based flow cytometry assay (reference value: 0.848%); assay type: cell-based; conditions: l02, 24 h
[12] = Selectivity index, ratio of IC50 for human CCD 19Lu cells to IC50 for human HepG2 cells; assay type: toxicity; conditions: CCD 19Lu cells versus HepG2 cells, read-out: Ratio IC50
[13] = Selectivity index, ratio of IC50 for human L02 cells to IC50 for human HePAD38 cells
[14] = Selectivity index, ratio of IC50 for human CCD 19Lu cells to IC50 for human HePAD38 cells
[15] = Induction of apoptosis in human HePAD38cells assessed as late apoptotic cells at 1 uM measured after 24 hrs by Annexin-V/PI staining based flow cytometry assay (reference value: 0.032%); assay type: functional, HePAD38
HeLa [16] = experiment: Inhibition of human SERCA in human HeLa cells assessed as alteration of calcium dynamics at 1 uM measured by FLIPR calcium assay; assay type: cell-based
HeLa [17] = experiment: Inhibition of human SERCA in human HeLa cells assessed as depletion of SERCA-dependent calcium storage at 1 uM preincubated with TG by FLIPR calcium assay; assay type: cell-based
HepG2 [18] = experiment: Induction of apoptosis in human HepG2 cells assessed as late apoptotic cells at 1 uM measured after 24 hrs by Annexin-V/PI staining based flow cytometry assay (reference value: 0.016%); assay type: functional
[19] = Induction of apoptosis in human HePAD38 cells assessed as viable cells at 1 uM measured after 24 hrs by Annexin-V/PI staining based flow cytometry assay (reference value: 98.9%); assay type: functional; conditions: read-out: Activity
HepG2 [20] = experiment: Induction of apoptosis in human HepG2 cells assessed as necrotic cells at 1 uM measured after 24 hrs by Annexin-V/PI staining based flow cytometry assay (reference value: 0.725%); assay type: functional
L02 [21] = experiment: Induction of apoptosis in human L02 cells assessed as early apoptotic cells at 1 uM measured after 24 hrs by Annexin-V/PI staining based flow cytometry assay (reference value: 1.49%); assay type: cell-based; conditions: l02, 24 h
L02 [22] = experiment: Induction of apoptosis in human L02 cells assessed as late apoptotic cells at 1 uM measured after 24 hrs by Annexin-V/PI staining based flow cytometry assay (reference value: 0.133%); assay type: cell-based; conditions: l02, 24 h

SMILES | IC50 (A549) | IC50 (L02 [1]) | IC50 [2] | IC50 (BEAS-2B) | IC50 (HepG2 [3]) | selectivity ratio [4] | selectivity ratio [12] | Ratio IC50 [13] | Ratio IC50 [14] | further results
CC1=C(O)C(=O)C=C2C1=CC=C1[C@@]2(C)CC[C@@]2(C)[C@@H]3C[C@](C)(C(=O)NC(CC(=O)OC(C)(C)C)C(=O)OC(C)(C)C)CC[C@]3(C)CC[C@]12C (stereo not given in full) | 4.92 µM | 15.4 µM | 11.8 µM | 3.72 µM | 3.56 µM |  |  |  |  | 
CC1=C(O)C(=O)C=C2C1=CC=C1[C@@]2(C)CC[C@@]2(C)[C@@H]3C[C@](C)(C(=O)NC(CC(=O)OC(C)(C)C)C(=O)NC(CC(=O)OC(C)(C)C)C(=O)OC(C)(C)C)CC[C@]3(C)CC[C@]12C (stereo not given in full) | 2.75 µM | 5.61 µM | 0.44 µM | 0.786 µM | 1.22 µM | 4.6 | 1.81 | 12.75 | 5 | Activity (HepG2 [5]): 3.45%; Activity [6]: 5.58%; inhibition (HeLa [7]): Active; viability at 1 µM (HepG2 [8]): 69.7%; Activity [9]: 2.27%; viability at 24 h, 1 µM [10]: 82.6%; Activity (L02 [11]): 2.14%; Activity [15]: 18.5%; inhibition (HeLa [16]): Active; inhibition (HeLa [17]): Active; Activity (HepG2 [18]): 14.5%; viability at 1 µM [19]: 73.6%; Activity (HepG2 [20]): 12.4%; Activity (L02 [21]): 3.62%; Activity (L02 [22]): 11.7%
COC(=O)CCNC(=O)[C@]1(C)CC[C@]2(C)CC[C@]3(C)C4=CC=C5C(=CC(=O)C(O)=C5C)[C@]4(C)CC[C@@]3(C)[C@@H]2C1 | 1.91 µM | 0.55 µM |  | 0.32 µM | 1.04 µM |  |  |  |  | 
CC1=C(O)C(=O)C=C2C1=CC=C1[C@@]2(C)CC[C@@]2(C)[C@@H]3C[C@](C)(C(=O)NCCCNC(=O)OC(C)(C)C)CC[C@]3(C)CC[C@]12C | 4.88 µM | 3.27 µM |  | 0.57 µM | 1.95 µM |  |  |  |  | 
CC1=C(O)C(=O)C=C2C1=CC=C1[C@@]2(C)CC[C@@]2(C)[C@@H]3C[C@](C)(C(=O)NC(CC(=O)OC(C)(C)C)C(=O)NC(CCC(=O)OC(C)(C)C)C(=O)OC(C)(C)C)CC[C@]3(C)CC[C@]12C (stereo not given in full) | 37.7 µM | 45.4 µM | 17 µM | 6.87 µM | 20.3 µM | 2.23 | 0.51 | 2.67 | 0.61 | 
CC1=C(O)C(=O)C=C2C1=CC=C1[C@@]2(C)CC[C@@]2(C)[C@@H]3C[C@](C)(C(=O)NC(CCC(=O)N(CC(=O)OC(C)(C)C)C(=O)OC(C)(C)C)C(=O)OC(C)(C)C)CC[C@]3(C)CC[C@]12C (stereo not given in full) | 3.4 µM | 2.34 µM | 2.55 µM | 1.33 µM | 1.54 µM | 1.52 | 5.96 | 0.91 | 3.4 | 
CC1=C(O)C(=O)C=C2C1=CC=C1[C@@]2(C)CC[C@@]2(C)[C@@H]3C[C@](C)(C(=O)NCCCNC(=O)[C@@]4(C)CC[C@@]5(C)CC[C@@]6(C)C7=CC=C8C(=CC(=O)C(O)=C8C)[C@@]7(C)CC[C@]6(C)[C@H]5C4)CC[C@]3(C)CC[C@]12C | 2.45 µM | 1.65 µM |  | 0.41 µM | 1.17 µM |  |  |  |  | 
CC1=C(O)C(=O)C=C2C1=CC=C1[C@@]2(C)CC[C@@]2(C)[C@@H]3C[C@](C)(C(=O)NC(CC(=O)NC(CC(=O)OC(C)(C)C)C(=O)OC(C)(C)C)C(=O)OC(C)(C)C)CC[C@]3(C)CC[C@]12C (stereo not given in full) | 9.85 µM | 19.1 µM | 4.54 µM | 2.18 µM | 7.98 µM | 2.39 | 0.61 | 4.21 | 1.07 | 
CC1=C(O)C(=O)C=C2C1=CC=C1[C@@]2(C)CC[C@@]2(C)[C@@H]3C[C@](C)(C(=O)NC(CC(=O)NC(CCC(=O)OC(C)(C)C)C(=O)OC(C)(C)C)C(=O)OC(C)(C)C)CC[C@]3(C)CC[C@]12C (stereo not given in full) | 19.3 µM | 30.2 µM | 4.15 µM | 3.22 µM | 8.78 µM | 3.43 | 1.07 | 7.27 | 2.28 | 
CC1=C(O)C(=O)C=C2C1=CC=C1[C@@]2(C)CC[C@@]2(C)[C@@H]3C[C@](C)(C(=O)O)CC[C@]3(C)CC[C@]12C [CELASTROL] | 2.83 µM | 0.78 µM | 1.85 µM | 0.454 µM | 0.94 µM | 0.82 | 0.96 | 0.42 | 0.48 | Activity (HepG2 [5]): 8.7%; Activity [6]: 9.47%; inhibition (HeLa [7]): Active; viability at 1 µM (HepG2 [8]): 79.6%; Activity [9]: 4.73%; viability at 24 h, 1 µM [10]: 70.8%; Activity (L02 [11]): 0.823%; Activity [15]: 10.5%; inhibition (HeLa [16]): Active; inhibition (HeLa [17]): Active; Activity (HepG2 [18]): 10%; viability at 1 µM [19]: 75.3%; Activity (HepG2 [20]): 1.61%; Activity (L02 [21]): 12.9%; Activity (L02 [22]): 15.5%
CC1=C(O)C(=O)C=C2C1=CC=C1[C@@]2(C)CC[C@@]2(C)[C@@H]3C[C@](C)(C(=O)NC(CCC(=O)OC(C)(C)C)C(=O)OC(C)(C)C)CC[C@]3(C)CC[C@]12C (stereo not given in full) | 4.2 µM | 4.23 µM | 1.54 µM | 0.62 µM | 2.52 µM |  |  |  |  | 
CC1=C(O)C(=O)C=C2C1=CC=C1[C@@]2(C)CC[C@@]2(C)[C@@H]3C[C@](C)(C(=O)NC(CCC(=O)NC(CCC(=O)OC(C)(C)C)C(=O)OC(C)(C)C)C(=O)OC(C)(C)C)CC[C@]3(C)CC[C@]12C (stereo not given in full) | 6.19 µM | 9.55 µM | 4.74 µM | 38.6 µM | 4.27 µM | 2.23 | 13.4 | 2.01 | 12 | Activity (HepG2 [5]): 1.55%; Activity [6]: 13.7%; inhibition (HeLa [7]): Active; viability at 1 µM (HepG2 [8]): 80.2%; Activity [9]: 1.85%; viability at 24 h, 1 µM [10]: 86.7%; Activity (L02 [11]): 1.64%; Activity [15]: 4.17%; inhibition (HeLa [16]): Active; inhibition (HeLa [17]): Active; Activity (HepG2 [18]): 11%; viability at 1 µM [19]: 80.3%; Activity (HepG2 [20]): 7.33%; Activity (L02 [21]): 6.2%; Activity (L02 [22]): 5.44%
